According to patent US20240269298A1, “PHOSPHONYL DERIVATIVE, AND COMPOSITION AND PHARMACEUTICAL APPLICATION THEREOF” (XIZANG HAISCO PHARMACEUTICAL CO., LTD., priority 2021, published 2024):
pIC50: −log10 of the molar value. Like-named read-outs stand apart in the source and are kept apart here.

Assays:
A431 (EGFR-WT) cells = assay: Inhibitory activity on proliferation of A431 (EGFR-WT) cells (CTG, 72 h); format: cell-based; conditions: Homo sapiens, A-431
Procedure: NCI-H1975 (EGFR-L858R-T790M) and A431 (EGFR-WT) cells were purchased from ATCC and cultured in an incubator at 37° C. with 5% CO2, and the culture mediums were RPMI1640+10% FBS and DMEM+10% FBS, respectively. On the first day, NCI-H1975 (EGFR-L858R-T790M) and A431 (EGFR-WT) cells in the logarithmic phase were collected, and viable cells were counted using an automatic cell analyzer (countstar). The cell suspensions were adjusted with the culture mediums and plated on a 96-well cell culture plate at 1000 cells/well for NCI-H1975 (EGFR-L858R-T790M) cells and at 3000 cells/well for A431 cells. The next day, the culture mediums were aspirated, and 90 μL of fresh culture mediums and 10 μL of the compounds at different concentrations were added to each well, wherein the final concentration of DMSO in each well was 0.1%. The plate was cultured in the incubator at 37° C. with 5% CO2 for 72 hours. After 72 hours of drug treatment, 50 μL of CTG solution (promega, G7572), which was already pre-melted and equilibrated to room temperature, was added to each well, and the mixtures were uniformly mixed for 2 min using a microplate shaker. The plate was placed at room temperature for 10 min, and then […] signal values were measured using a microplate reader (PHERAstar FSX).
Surviving cells % was calculated based on Vsample/Vvehicle control×100%, wherein Vsample was the readout of the drug-treated group, and Vvehicle control was the average value of the vehicle control group. Using the origin 9.2 software and nonlinear regression model, S-shaped dose-survival curves were plotted, and IC50 values were calculated.

[1] = test system: NCI-H1975 (EGFR-L858R-T790M) cells; assay: Inhibitory activity on proliferation of NCI-H1975 (EGFR-L858R-T790M) cells (CTG, 72 h); format: cell-based; conditions: Homo sapiens
How it was run: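 Cells plated at 1000/well (NCI-H1975, RPMI1640+10% FBS) or 3000/well (A431, DMEM+10% FBS), dosed next day with compounds (0.1% DMSO final) for 72 h at 37 °C, 5% CO2. Viability by CTG luminescence, normalised to vehicle control; IC50 from nonlinear-regression dose-survival curves.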

[2] = read-out: IC50 (value in brackets)

Row | Compound | pIC50 (A431 (EGFR-WT) cells) | pIC50 ([1]; read-out: IC50 (class symbol)) | pIC50 [1, 2]
1 | COc1cc(N2CCC(CN3CC4CN(c5ccc6c(c5)C(=O)N(C5CCC(=O)NC5=O)C6=O)CC4C3)CC2)c(C2CC2)cc1Nc1ncc(Br)c(Nc2ccc3nccnc3c2P(C)(C)=O)n1 (centres unmarked) [Compound 34, 5-(5-((1-(4-((5-bromo-4-((5-(dimethylphosphoryl)quinoxalin-6-yl)amino)pyrimidin-2-yl)amino)-2-cyclopropyl-5-methoxyphenyl)piperidin-4-yl)methyl)hexahydropyrrolo[3,4-c]pyrrol-2(1H)-yl)-2-(2,6-dioxopiperidin-3-yl)isoindoline-1,3-dione] | ≤ 5.00 |  | 
2 | COc1cc(N2CCN(c3ccc4c(c3)C(=O)N(C3CCC(=O)NC3=O)C4=O)CC2)c(-c2cnn(C)c2)cc1Nc1ncc(Cl)c(Nc2ccc(C3CC3)cc2P(C)(C)=O)n1 (centres unmarked) [Compound 167, 5-(4-(4-((5-chloro-4-((4-cyclopropyl-2-(dimethylphosphoryl)phenyl)amino)pyrimidin-2-yl)amino)-5-methoxy-2-(1-methyl-1H-pyrazol-4-yl)phenyl)piperazin-1-yl)-2-(2,6-dioxopiperidin-3-yl)isoindoline-1,3-dione] | ≤ 5.00 |  | 
3 | COc1cc(N2CCC(N3CCN(c4ccc(N5CCC(=O)NC5=O)cc4)CC3)CC2)c(-c2cnn(C)c2)cc1Nc1ncc(Cl)c(Nc2ccc(-c3ccccc3)cc2P(C)(C)=O)n1 [Compound 137, 1-(4-(4-(1-(4-((5-chloro-4-((3-(dimethylphosphoryl)-[1,1′-biphenyl]-4-yl)amino)pyrimidin-2-yl)amino)-5-methoxy-2-(1-methyl-1H-pyrazol-4-yl)phenyl)piperidin-4-yl)piperazin-1-yl)phenyl)dihydropyrimidine-2,4(1H,3H)-dione] | ≤ 5.00 |  | 
4 | COc1cc(N2CCC(N3CCN(c4ccc(N5CCC(=O)NC5=O)cc4)CC3)CC2)c(-c2cnn(C)c2)cc1Nc1ncc(Cl)c(Nc2ccc(C3CC3)cc2P(C)(C)=O)n1 [Compound 133, 1-(4-(4-(1-(4-((5-chloro-4-((4-cyclopropyl-2-(dimethylphosphoryl)phenyl)amino)pyrimidin-2-yl)amino)-5-methoxy-2-(1-methyl-1H-pyrazol-4-yl)phenyl)piperidin-4-yl)piperazin-1-yl)phenyl)dihydropyrimidine-2,4(1H,3H)-dione] | ≤ 5.00 |  | 
5 | COc1cc(N2CCN(CC3CCN(c4ccc5c(c4)C(=O)N(C4CCC(=O)NC4=O)C5=O)CC3)CC2)c(-c2cnn(C)c2)cc1Nc1ncc(Cl)c(Nc2ccccc2P(C)(C)=O)n1 (centres unmarked) [Compound 128, 5-(4-((4-(4-((5-chloro-4-((2-(dimethylphosphoryl)phenyl)amino)pyrimidin-2-yl)amino)-5-methoxy-2-(1-methyl-1H-pyrazol-4-yl)phenyl)piperazin-1-yl)methyl)piperidin-1-yl)-2-(2,6-dioxopiperidin-3-yl)isoindoline-1,3-dione] |  | > 7.00 | 7.60
6 | COc1cc(N2CCC(CN3CCCC4(CCN(c5ccc6c(c5)C(=O)N(C5CCC(=O)NC5=O)C6=O)CC4)C3)CC2)c(-c2cnn(C)c2)cc1Nc1ncc(Br)c(Nc2ccc(-c3ccccc3)cc2P(C)(C)=O)n1 (centres unmarked) [Compound 44, 5-(2-((1-(4-((5-bromo-4-((3-(dimethylphosphoryl)-[1,1′-biphenyl]-4-yl)amino)pyrimidin-2-yl)amino)-5-methoxy-2-(1-methyl-1H-pyrazol-4-yl)phenyl)piperidin-4-yl)methyl)-2,9-diazaspiro[5.5]undecan-9-yl)-2-(2,6-dioxopiperidin-3-yl)isoindoline-1,3-dione] |  | 6.30 to 7.00 | 6.52
7 | COc1cc(N2CCN(C3CCN(CC4CCN(c5ccc6c(c5)C(=O)N(C5CCC(=O)NC5=O)C6=O)CC4)CC3)CC2)c(-c2cnn(C)c2)cc1Nc1ncc(Cl)c(Nc2ccc3nccnc3c2P(C)(C)=O)n1 (centres unmarked) [Trifluoroacetate of compound 12, 5-(4-((4-(4-(4-((5-chloro-4-((5-(dimethylphosphoryl)quinoxalin-6-yl)amino)pyrimidin-2-yl)amino)-5-methoxy-2-(1-methyl-1H-pyrazol-4-yl)phenyl)piperazin-1-yl)piperidin-1-yl)methyl)piperidin-1-yl)-2-(2,6-dioxopiperidin-3-yl)isoindoline-1,3-dione] |  | > 7.00 | 7.23
8 | COc1cc(N2CCN(CC3CCN(c4ccc5c(c4)C(=O)N(C4CCC(=O)NC4=O)C5=O)CC3)CC2)c(-c2cnn(C)c2)cc1Nc1ncc(Br)c(Nc2ccccc2P(C)(C)=O)n1 (centres unmarked) [Compound 127, 5-(4-((4-(4-((5-bromo-4-((2-(dimethylphosphoryl)phenyl)amino)pyrimidin-2-yl)amino)-5-methoxy-2-(1-methyl-1H-pyrazol-4-yl)phenyl)piperazin-1-yl)methyl)piperidin-1-yl)-2-(2,6-dioxopiperidin-3-yl)isoindoline-1,3-dione] |  | > 7.00 | 7.72
9 | COc1cc(N2CCN(C3CCN(CC4CCN(c5ccc6c(c5)C(=O)N(C5CCC(=O)NC5=O)C6=O)CC4)CC3)CC2)c(-c2cnn(C)c2)cc1Nc1ncc(Br)c(Nc2ccc3nccnc3c2P(C)(C)=O)n1 (centres unmarked) [Compound 31, 5-(4-((4-(4-(4-((5-bromo-4-((5-(dimethylphosphoryl)quinoxalin-6-yl)amino)pyrimidin-2-yl)amino)-5-methoxy-2-(1-methyl-1H-pyrazol-4-yl)phenyl)piperazin-1-yl)piperidin-1-yl)methyl)piperidin-1-yl)-2-(2,6-dioxopiperidin-3-yl)isoindoline-1,3-dione] |  | > 7.00 | 7.82
10 | COc1cc(N2CCC(CN3CCN(c4ccc5c(c4)CN(C4CCC(=O)NC4=O)C5=O)CC3)CC2)c(-c2cnn(C)c2)cc1Nc1ncc(Cl)c(Nc2ccccc2P(C)(C)=O)n1 (centres unmarked) [Compound 140, 3-(5-(4-((1-(4-((5-chloro-4-((2-(dimethylphosphoryl)phenyl)amino)pyrimidin-2-yl)amino)-5-methoxy-2-(1-methyl-1H-pyrazol-4-yl)phenyl)piperidin-4-yl)methyl)piperazin-1-yl)-1-oxoisoindolin-2-yl)piperidine-2,6-dione] |  | > 7.00 | 7.49
11 | COc1cc(N2CCC(CN3CCN(c4ccc(NC5CCC(=O)NC5=O)cc4F)CC3)CC2)c(-c2cnn(C)c2)cc1Nc1ncc(Cl)c(Nc2ccc(C3CC3)cc2P(C)(C)=O)n1 (centres unmarked) [Compound 158, 3-((4-(4-((1-(4-((5-chloro-4-((4-cyclopropyl-2-(dimethylphosphoryl)phenyl)amino)pyrimidin-2-yl)amino)-5-methoxy-2-(1-methyl-1H-pyrazol-4-yl)phenyl)piperidin-4-yl)methyl)piperazin-1-yl)-3-fluorophenyl)amino)piperidine-2,6-dione] |  | > 7.00 | 7.59
12 | COc1cc(N2CCC3(CCN(Cc4cccc(NC5CCC(=O)NC5=O)c4)CC3)CC2)c(-c2cnn(C)c2)cc1Nc1ncc(Cl)c(Nc2ccc(-c3ccccc3)cc2P(C)(C)=O)n1 (centres unmarked) [Compound 130, 3-((3-((9-(4-((5-chloro-4-((3-(dimethylphosphoryl)-[1,1′-biphenyl]-4-yl)amino)pyrimidin-2-yl)amino)-5-methoxy-2-(1-methyl-1H-pyrazol-4-yl)phenyl)-3,9-diazaspiro[5.5]undecan-3-yl)methyl)phenyl)amino)piperidine-2,6-dione] |  | 6.30 to 7.00 | 6.93
